For 26 compounds, IC50 results are on record in US10023570B2 (Array BioPharma, Inc., priority 2015, dated 2018).

In the assay the target is human KDR protein in HEK-293 cells (Homo sapiens (Human), UniProt P35968). Nature of the assay: KDR Cell Assay (phospho-KDR in HEK-293 cells expressing inducible KDR). Format: cell-based. As to conditions: pKDR Cell HEK 10% FBS IC50, HEK-293 cells expressing inducible KDR, VEGF stimulated, 10% FBS. Here is the method:
The cellular potency of a compound inhibiting KDR kinase was determined in HEK-293 cells expressing an inducible human KDR protein. […] The cells were incubated for 1 hour with test compound in DMEM at a final DMSO concentration of 0.25%. […] The media was aspirated and 35 μL of a 1× lysis buffer was added. […] The lysate was stored at −80° C. until ready for assay. Phospho-KDR was measured using a phospho-KDR kit (Catalog #K151BOC) purchased from Meso Scale Diagnostics (Rockville, Md.) according to the manufacturer's instructions. All values are expressed as percent of percent of control (POC). The POC values were fitted to a 4 parameter logistic curve fit and the IC50 value is point where the curve crosses 50 POC.

Where a name gives a salt, the structure may show the parent alone.

human KDR protein in HEK-293 cells, sequence (P35968 20-1356): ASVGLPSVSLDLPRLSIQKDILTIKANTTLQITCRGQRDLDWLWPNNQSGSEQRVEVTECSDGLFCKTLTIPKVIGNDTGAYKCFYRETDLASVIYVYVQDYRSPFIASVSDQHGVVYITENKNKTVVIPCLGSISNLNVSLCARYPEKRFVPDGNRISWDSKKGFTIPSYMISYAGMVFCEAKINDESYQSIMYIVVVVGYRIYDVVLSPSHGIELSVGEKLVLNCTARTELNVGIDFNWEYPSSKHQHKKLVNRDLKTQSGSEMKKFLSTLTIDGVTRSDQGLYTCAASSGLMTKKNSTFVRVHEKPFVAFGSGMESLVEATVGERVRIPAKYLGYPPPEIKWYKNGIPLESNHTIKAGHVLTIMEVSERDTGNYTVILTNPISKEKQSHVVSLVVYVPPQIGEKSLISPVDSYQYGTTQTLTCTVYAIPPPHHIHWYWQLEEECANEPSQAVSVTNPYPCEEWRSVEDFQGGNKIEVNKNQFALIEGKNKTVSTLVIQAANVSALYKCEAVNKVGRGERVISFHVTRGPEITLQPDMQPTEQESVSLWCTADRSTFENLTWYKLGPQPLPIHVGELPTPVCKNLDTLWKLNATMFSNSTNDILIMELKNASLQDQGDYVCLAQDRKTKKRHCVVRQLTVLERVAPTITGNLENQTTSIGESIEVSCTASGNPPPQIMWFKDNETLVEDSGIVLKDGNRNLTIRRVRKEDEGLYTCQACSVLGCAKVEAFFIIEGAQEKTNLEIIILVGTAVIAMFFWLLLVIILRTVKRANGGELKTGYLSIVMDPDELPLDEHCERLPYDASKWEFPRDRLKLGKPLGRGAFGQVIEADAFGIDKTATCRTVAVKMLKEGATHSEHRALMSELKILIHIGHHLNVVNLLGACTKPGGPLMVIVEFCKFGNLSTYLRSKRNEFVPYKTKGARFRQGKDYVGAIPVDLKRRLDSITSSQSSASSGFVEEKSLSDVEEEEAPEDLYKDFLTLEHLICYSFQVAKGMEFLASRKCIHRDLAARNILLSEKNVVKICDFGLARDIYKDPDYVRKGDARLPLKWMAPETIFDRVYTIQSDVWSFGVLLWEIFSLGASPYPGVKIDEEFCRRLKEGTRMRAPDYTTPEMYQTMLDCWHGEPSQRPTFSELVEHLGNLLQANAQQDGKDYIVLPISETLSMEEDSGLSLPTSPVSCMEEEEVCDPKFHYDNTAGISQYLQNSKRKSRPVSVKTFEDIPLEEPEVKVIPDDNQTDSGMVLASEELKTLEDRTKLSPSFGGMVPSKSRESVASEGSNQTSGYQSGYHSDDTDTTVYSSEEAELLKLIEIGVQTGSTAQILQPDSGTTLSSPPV

`Cn1cc(-c2cc(-c3ccc(N4CCN(C(=O)[C@@H](O)Cc5ccccc5)CC4)nc3)c3c(C#N)cnn3c2)cn1` [Example 4] came in with an IC50 of 328 nM.

In turn, `Cn1cc(-c2cc(-c3ccc(N4CCN(C(=O)Cc5ccccn5)CC4)nc3)c3c(C#N)cnn3c2)cn1` [Example 5, 6-(1-methyl-1H-pyrazol-4-yl)-4-(6-(4-(2-(pyridin-2-yl)acetyl)piperazin-1-yl)pyridin-3-yl)pyrazolo[1,5-a]pyridine-3-carbonitrile] returned an IC50 of 243 nM. Turning to `Cn1cc(-c2cc(-c3ccc(N4CCN(C(=O)[C@@H](O)c5ccccc5)CC4)nc3)c3c(C#N)cnn3c2)cn1` [Example 6, (S)-4-(6-(4-(2-hydroxy-2-phenylacetyl)piperazin-1-yl)pyridin-3-yl)-6-(1-methyl-1H-pyrazol-4-yl)pyrazolo[1,5-a]pyridine-3-carbonitrile], the midpoint of inhibition, the IC50, lay at 115 nM. Next, `Cn1cc(-c2cc(-c3ccc(N4CCN(C(=O)C[C@@H](O)c5ccccc5)CC4)nc3)c3c(C#N)cnn3c2)cn1` [Example 7, (R)-4-(6-(4-(3-hydroxy-3-phenylpropanoyl)piperazin-1-yl)pyridin-3-yl)-6-(1-methyl-1H-pyrazol-4-yl)pyrazolo[1,5-a]pyridine-3-carbonitrile]: 115 nM; `Cn1cc(-c2cc(-c3ccc(N4CCN(C(=O)C[C@H](O)c5ccccc5)CC4)nc3)c3c(C#N)cnn3c2)cn1` [Example 8, (S)-4-(6-(4-(3-hydroxy-3-phenylpropanoyl)piperazin-1-yl)pyridin-3-yl)-6-(1-methyl-1H-pyrazol-4-yl)pyrazolo[1,5-a]pyridine-3-carbonitrile]: 98.9 nM. As for `Cn1cc(-c2cc(-c3ccc(N4CCN(C(=O)[C@H](O)Cc5ccccc5)CC4)nc3)c3c(C#N)cnn3c2)cn1` [Example 9, (R)-4-(6-(4-(2-hydroxy-3-phenylpropanoyl)piperazin-1-yl)pyridin-3-yl)-6-(1-methyl-1H-pyrazol-4-yl)pyrazolo[1,5-a]pyridine-3-carbonitrile], the figure is 32.7 nM; as for `Cn1cc(-c2cc(-c3ccc(N4CCN(C(=O)C(O)c5ccccc5F)CC4)nc3)c3c(C#N)cnn3c2)cn1` (centres unmarked) [Example 10, 4-(6-(4-(2-(2-fluorophenyl)-2-hydroxyacetyl)piperazin-1-yl)pyridin-3-yl)-6-(1-methyl-1H-pyrazol-4-yl)pyrazolo[1,5-a]pyridine-3-carbonitrile], 47.4 nM.

The compound `Cn1cc(-c2cc(-c3ccc(N4CCN(C(=O)[C@H]5CC[C@@H](O)C5)CC4)nc3)c3c(C#N)cnn3c2)cn1` [Example 12, 4-(6-(4-((1S,3R)-3-hydroxycyclopentane-1-carbonyl)piperazin-1-yl)pyridin-3-yl)-6-(1-methyl-1H-pyrazol-4-yl)pyrazolo[1,5-a]pyridine-3-carbonitrile] came in with an IC50 of 1190 nM.

`C[C@@H](C(=O)N1CCN(c2ccc(-c3cc(-c4cnn(C)c4)cn4ncc(C#N)c34)cn2)CC1)c1ccccc1` [Example 14, (R)-6-(1-methyl-1H-pyrazol-4-yl)-4-(6-(4-(2-phenylpropanoyl)piperazin-1-yl)pyridin-3-yl)pyrazolo[1,5-a]pyridine-3-carbonitrile] came in with a half-maximal inhibitory concentration (IC50) of 1780 nM.

As to `C[C@H](C(=O)N1CCN(c2ccc(-c3cc(-c4cnn(C)c4)cn4ncc(C#N)c34)cn2)CC1)c1ccccc1` [Example 15, (S)-6-(1-methyl-1H-pyrazol-4-yl)-4-(6-(4-(2-phenylpropanoyl)piperazin-1-yl)pyridin-3-yl)pyrazolo[1,5-a]pyridine-3-carbonitrile], the midpoint of inhibition, the IC50, lay at 643 nM.

Compound `Cn1cc(-c2cc(-c3ccc(N4CCN(C(=O)C(CO)c5ccccc5)CC4)nc3)c3c(C#N)cnn3c2)cn1` (centres unmarked) [Example 16, 4-(6-(4-(3-hydroxy-2-phenylpropanoyl)piperazin-1-yl)pyridin-3-yl)-6-(1-methyl-1H-pyrazol-4-yl)pyrazolo[1,5-a]pyridine-3-carbonitrile] returned an IC50 of 435 nM.

In the case of `Cn1cc(-c2cc(-c3ccc(N4CCN(C(=O)C[C@H](NC(=O)OC(C)(C)C)c5ccccc5)CC4)nc3)c3c(C#N)cnn3c2)cn1` [Example 17, (S)-tert-butyl (3-(4-(5-(3-cyano-6-(1-methyl-1H-pyrazol-4-yl)pyrazolo[1,5-a]pyridin-4-yl)pyridin-2-yl)piperazin-1-yl)-3-oxo-1-phenylpropyl)carbamate], the IC50 came to 83.4 nM.

The compound `Cc1ccc(CC(=O)N2CCN(c3ccc(-c4cc(-c5cnn(C)c5)cn5ncc(C#N)c45)cn3)CC2)cn1` [Example 19, 6-(1-methyl-1H-pyrazol-4-yl)-4-(6-(4-(2-(6-methylpyridin-3-yl)acetyl)piperazin-1-yl)pyridin-3-yl)pyrazolo[1,5-a]pyridine-3-carbonitrile] registered an IC50 of 546 nM. As for `Cn1cc(-c2cc(-c3ccc(N4CCN(C(=O)Cc5ccnn5C)CC4)nc3)c3c(C#N)cnn3c2)cn1` [Example 20, 6-(1-methyl-1H-pyrazol-4-yl)-4-(6-(4-(2-(1-methyl-1H-pyrazol-5-yl)acetyl)piperazin-1-yl)pyridin-3-yl)pyrazolo[1,5-a]pyridine-3-carbonitrile], the figure is 1650 nM; as for `Cn1cc(-c2cc(-c3ccc(N4CCN(C(=O)C5CCCC5)CC4)nc3)c3c(C#N)cnn3c2)cn1` [Example 21, 4-(6-(4-(cyclopentanecarbonyl)piperazin-1-yl)pyridin-3-yl)-6-(1-methyl-1H-pyrazol-4-yl)pyrazolo[1,5-a]pyridine-3-carbonitrile], 540 nM; as for `Cn1cc(-c2cc(-c3ccc(N4CCN(C(=O)C[C@H](N)c5ccccc5)CC4)nc3)c3c(C#N)cnn3c2)cn1` [Example 23, (S)-4-(6-(4-(3-amino-3-phenylpropanoyl)piperazin-1-yl)pyridin-3-yl)-6-(1-methyl-1H-pyrazol-4-yl)pyrazolo[1,5-a]pyridine-3-carbonitrile dihydrochloride], 45.4 nM.

Compound `Cn1cc(-c2cc(-c3ccc(N4CCN(C(=O)C5(c6ccccc6)CCCC5)CC4)nc3)c3c(C#N)cnn3c2)cn1` [Example 24, 6-(1-methyl-1H-pyrazol-4-yl)-4-(6-(4-(1-phenylcyclopentanecarbonyl)piperazin-1-yl)pyridin-3-yl)pyrazolo[1,5-a]pyridine-3-carbonitrile] returned an IC50 of 960 nM. As for `Cn1cc(-c2cc(-c3ccc(N4CCN(C(=O)C5(c6ccccc6)CC5)CC4)nc3)c3c(C#N)cnn3c2)cn1` [Example 25, 6-(1-methyl-1H-pyrazol-4-yl)-4-(6-(4-(1-phenylcyclopropane-1-carbonyl)piperazin-1-yl)pyridin-3-yl)pyrazolo[1,5-a]pyridine-3-carbonitrile], the figure is 270 nM; as for `Cn1cc(-c2cc(-c3ccc(N4CCN(C(=O)C(C)(C)c5ccccc5)CC4)nc3)c3c(C#N)cnn3c2)cn1` [Example 26, 6-(1-methyl-1H-pyrazol-4-yl)-4-(6-(4-(2-methyl-2-phenylpropanoyl)piperazin-1-yl)pyridin-3-yl)pyrazolo[1,5-a]pyridine-3-carbonitrile], 476 nM; as for `Cn1cc(-c2cc(-c3ccc(N4CCN(C(=O)C5(c6ccccc6)CCC5)CC4)nc3)c3c(C#N)cnn3c2)cn1` [Example 27, 6-(1-methyl-1H-pyrazol-4-yl)-4-(6-(4-(1-phenylcyclobutane-1-carbonyl)piperazin-1-yl)pyridin-3-yl)pyrazolo[1,5-a]pyridine-3-carbonitrile], 651 nM. Compound `CC(C)C(C(=O)N1CCN(c2ccc(-c3cc(-c4cnn(C)c4)cn4ncc(C#N)c34)cn2)CC1)c1ccccc1` (centres unmarked) [Example 29, 6-(1-methyl-1H-pyrazol-4-yl)-4-(6-(4-(3-methyl-2-phenylbutanoyl)piperazin-1-yl)pyridin-3-yl)pyrazolo[1,5-a]pyridine-3-carbonitrile] showed a 50% inhibitory concentration (IC50) of 607 nM. `Cn1cc(C(=O)N2CCN(c3ccc(-c4cc(-c5cnn(C)c5)cn5ncc(C#N)c45)cn3)CC2)cn1` [Example 35, 6-(1-methyl-1H-pyrazol-4-yl)-4-(6-(4-(1-methyl-1H-pyrazole-4-carbonyl)piperazin-1-yl)pyridin-3-yl)pyrazolo[1,5-a]pyridine-3-carbonitrile 2,2,2-trifluoroacetate] showed an IC50 of 437 nM.

Compound `Cn1cnc(C(=O)N2CCN(c3ccc(-c4cc(-c5cnn(C)c5)cn5ncc(C#N)c45)cn3)CC2)c1` [Example 36, 4-(6-(4-(1-methyl-1H-imidazole-4-carbonyl)piperazin-1-yl)pyridin-3-yl)-6-(1-methyl-1H-pyrazol-4-yl)pyrazolo[1,5-a]pyridine-3-carbonitrile bis(2,2,2-trifluoroacetate)] yielded an IC50 of 212 nM.

Compound `Cc1cc(C(=O)N2CCN(c3ccc(-c4cc(-c5cnn(C)c5)cn5ncc(C#N)c45)cn3)CC2)no1` [Example 37, 6-(1-methyl-1H-pyrazol-4-yl)-4-(6-(4-(5-methylisoxazole-3-carbonyl)piperazin-1-yl)pyridin-3-yl)pyrazolo[1,5-a]pyridine-3-carbonitrile 2,2,2-trifluoroacetate] displayed an IC50 of 91.2 nM. In the case of `Cn1cc(-c2cc(-c3ccc(N4CCN(C(=O)c5cnccn5)CC4)nc3)c3c(C#N)cnn3c2)cn1` [Example 38, 6-(1-methyl-1H-pyrazol-4-yl)-4-(6-(4-(pyrazine-2-carbonyl)piperazin-1-yl)pyridin-3-yl)pyrazolo[1,5-a]pyridine-3-carbonitrile 2,2,2-trifluoroacetate], the midpoint of inhibition, the IC50, lay at 396 nM. Next, `Cn1cc(-c2cc(-c3ccc(N4CCN(C(=O)Cc5c(F)cccc5F)CC4)nc3)c3c(C#N)cnn3c2)cn1` [Example 39, 4-(6-(4-(2-(2,6-difluorophenyl)acetyl)piperazin-1-yl)pyridin-3-yl)-6-(1-methyl-1H-pyrazol-4-yl)pyrazolo[1,5-a]pyridine-3-carbonitrile 2,2,2-trifluoroacetate]: 83.9 nM.
